In patent publication US12485174B2, “HDAC6-activated macrophages, compositions, and uses thereof” (The George Washington University, A Congressionally …, priority 2019, dated 2025):

What was measured:
[1] = tested on: bone marrow-derived macrophages; test: SIINFEKL antigen cross-presentation (XPT) by polarized bone marrow derived macrophages, MHCI-SIINFEKL antibody, FACS; format: cell-based, mouse; details: M1 polarized macrophages pre-treated with NextA, OVA peptide 24 hours
Description: FIG. 1 is a line graph showing the SIINFEKL antigen levels derived from OVA peptide and detected by MHCI-SIINFEKL specific antibody as measured by FACS in bone marrow-derived macrophages from wild type or HDAC6 KO (knockout) mice. Macrophages were pre-treated with Nexturastat A (NextA) 5 μM and then polarized for 24 hours.
FIG. 2 is a graph showing the MHCI-SIINFEKL levels in polarized macrophages derived from wild-type mice pre-treated with NextA and incubated with OVA peptide for 24 hours.
Bone marrow derived macrophages: For macrophage isolation, bone marrow from 6-12 weeks old C57BL/6 mouse was used following an IACUC approved protocol. Briefly, femurs and tibia bones were isolated after removing the skeletal muscles. The bone marrow was flushed with RPMI complete medium supplemented with non-essential amino acids. A single-cell suspension of bone marrow was prepared with repeated pipetting and incubated with 20 ng/mL of mouse recombinant M-CSF (Biolegend) at 37° C. for 4 days to differentiate into macrophages. […]
Endogenous peptides are usually presented through MHC-I to CD8 T-cells and exogenous (from other cells such as tumors) peptides through MHC-II to CD4 T-cells. […] Taking advantage of a highly specific antibody recognizing MHC-I loaded with SIINFEKL peptide, efficiency of antigen XPT was determined. […]

[2] = tested on: SM1-OVA murine melanoma cells; test: MHCI and MHCI-SIINFEKL levels in SM1-OVA melanoma cells by flow cytometry; format: cell-based, mouse; details: for MHC-I mediated SIINFEKL antigen presentation: over time
Description: FIG. 3 is a bar graph showing the MHCI and MHCI-SIINFEKL levels after SM1-OVA (SM1 cells expressing OVA peptide) melanoma cells were treated with 5 μM NextA for 24 hours. MHCI and MHCI-SIINFEKL levels were measured by FACS.
FIG. 25 is a panel of four bar graphs showing the MHCI-SIINFEKL levels when SM1 cells stably expressing OVA (SM1-OVA cells) peptide are exposed to 4 Gy of radiation, NextA, or a combination at the times indicated. MHC-I mediated SIINFEKL antigen presentation was measured by flow cytometry.
Cell culture: SM1 murine melanoma cells were obtained from Dr. A. Ribas at the University of California, Los Angeles, and cultured in an incubator in RPMI 1640, 1% penicillin-streptomycin, and 10% fetal bovine serum at 37° C. with 5% CO2.
(§1) Flow cytometry: Flow cytometry was performed following the protocol described previously. Knox et al., Sci Rep. 2019 Oct. 10; 9(1):14824. doi: 10.1038/s41598-019-51403-6. Briefly, mice were euthanized following the IACUC protocol, and tumor cells were processed into a single cell suspension for analysis by flow cytometry with tumor digestion buffer. The following antibodies were used to stain cell surface markers expressed by different immune cells. All the antibodies were purchased from Biolegend (San Diego, CA) unless otherwise specified. Myeloid cell surface markers are as follows: APC anti-mouse CD80 (clone 16-10A1), PE/Cy7 anti-mouse CD206 (MMR) (clone C068C2), APC/Fire™ 750 anti-mouse CD45.2 (clone 104), FITC anti-mouse H-2 (clone M1/42), Brilliant Violet 785™ anti-mouse F4/80 (clone BM8), and Alexa Fluor® 700 anti-mouse CD3 (clone 17A2). To distinguish between MHCI and MHCI-bound to SIINFEKL, we used APC anti-mouse H-2Kb bound to SIINFEKL antibody (clone 25-D1.16). Multi-color flow data acquisition was performed on BD Celesta, and data analysis was performed with FlowJo software (version 10.3). Statistical analyses were performed with GraphPad Prism Software (version 7.03).
The combination of radiation and HDAC6 inhibition increases antigen presentation in a time dependent manner. […] Radiation with HDAC6 inhibition increases antigen presentation in tumor cells. FIG. 25. The sequencing of NextA and radiation treatment for effective antigen presentation in tumor cells is show in FIG. 26.

[3] = tested on: Bone marrow derived macrophages (BMDMs); test: Polarization of bone marrow derived macrophages to M1 (LPS/IFNγ) or M2 (IL4/IL13) phenotype by flow cytometry; format: cell-based, mouse
Description: (§2) Bone marrow derived macrophages: For macrophage isolation, bone marrow from 6-12 weeks old C57BL/6 mouse was used following an IACUC approved protocol. Briefly, femurs and tibia bones were isolated after removing the skeletal muscles. The bone marrow was flushed with RPMI complete medium supplemented with non-essential amino acids. A single-cell suspension of bone marrow was prepared with repeated pipetting and incubated with 20 ng/mL of mouse recombinant M-CSF (Biolegend) at 37° C. for 4 days to differentiate into macrophages.
as §1
Bone marrow derived macrophages (BMDMs) isolated from femur and tibia of C57BL/6 mouse were differentiated into macrophages with M-CSF. These naïve macrophages were pre-treated with NextA and polarized to M1 macrophages with LPS/IFNγ or M2 macrophages with IL4/IL13.

[4] = tested on: bone marrow derived macrophages; test: Gene expression of polarization markers, cytokines and antigen processing genes in macrophages by quantitative real-time PCR; format: cell-based, mouse
Description: Quantitative analysis of gene expression. Total RNA was isolated from cells following the manufacturer's instructions of QIAzol lysis reagent (Qiagen, 79306). RNA quantification was done using a NanoDrop One spectrophotometer (NanoDrop Technologies). Samples with absorbance at 260/280 nm ratios over 1.9 were used for cDNA synthesis with the iScript cDNA synthesis kit (Bio-Rad, 1708891). Synthesized cDNA from 1 μg of total RNA was diluted 1:10 with nuclease-free water. The quantitative PCR analysis was performed using iQ SYBR Green Supermix (Bio-Rad, 1708882) on a CFX96 real-time system (Bio-Rad). Gene expression analysis was performed using the 2^−ΔΔCt method, and target mRNA levels were normalized to GAPDH expression. Cycling conditions were used as per the manufacturer's instructions. Single PCR product amplification was confirmed by melting curve analysis in all the experiments performed.
as §2
Further validation of M2 polarization markers at gene expression levels by quantitative real-time PCR indicate that Arginase I, IL-10 and TGFβ, which are tumor-promoting factors, were decreased. FIG. 9, FIG. 10, and FIG. 11. The expression of M1 polarization markers and anti-tumor, pro-inflammatory cytokines such as TNFα and IL-1B were increased. FIG. 12 and FIG. 13.

[5] = M1 macrophages compared to M0 after treatment
[6] = pre-treated polarized macrophages

CCCCN(Cc1ccc(C(=O)NO)cc1)C(=O)Nc1ccccc1 [NextA, Nexturastat A]
M1 XPT (cross-presentation of SIINFEKL peptide by MHC-I) [1]: increased
presence of MHC I ([2]; 5 μM NextA for 24 hours): increased
presence of SIINFEKL-loaded MHC-I ([2]; 5 μM NextA for 24 hours): increased
MHC-I mediated SIINFEKL antigen presentation ([2]; NextA alone): time dependent increases
MHC-I mediated SIINFEKL antigen presentation ([2]; NextA in combination with 4 Gy of radiation): time dependent increases
pro-tumoral M2 phenotype of macrophages ([3]; data not shown): reduced
polarization of M2 macrophages ([3]; pre-treatment of naïve macrophages, then IL4/IL13): decreased
polarization of M1 macrophages ([3]; pre-treatment of naïve macrophages, then LPS/IFNγ): did not affect
IL1 beta expression (M1 pro-inflammatory cytokine) ([4]; M0 macrophages): increases
IL10 expression (M2 anti-inflammatory cytokine) ([4]; M0 macrophages): decreased
IL12 expression (M1 pro-inflammatory cytokine) ([4]; M0 macrophages): increases
TGF beta expression (M2 anti-inflammatory cytokine) ([4]; M0 macrophages): decreased
TNF alpha expression (M1 pro-inflammatory cytokine) ([4]; M0 macrophages): increases
ERAP1 gene expression [4, 5]: increased
TAP1 gene expression [4, 5]: increased
TAP2 gene expression [4, 5]: increased
TAPBP gene expression [4, 5]: increased
Arginase I gene expression (M2 polarization marker) [4, 6]: decreased
IL-1B gene expression (M1 marker) [4, 6]: increased
IL-10 gene expression (M2 marker) [4, 6]: decreased
TGFβ gene expression (M2 marker) [4, 6]: decreased
TNFα gene expression (M1 marker) [4, 6]: increased
concentration over which high cytotoxicity is induced (Macrophages): over 5 μM
